Test results: US9273014B2, “Bis(fluoroalkyl)-1,4-benzodiazepinone compounds and prodrugs thereof” (Bristol-Myers Squibb Company, priority 2012, dated 2016)

Assays:
in vitro = settings: human, microsomes, pH 7.4
human Notch 3 = human Notch 3 (Homo sapiens, UniProt Q9UM47); assay: Notch-CBF1 Transactivation Assay (Notch 3); format: cell-based; settings: HeLa cells co-transfected with truncated Notch 3 and CBF1 luciferase reporter; 18 hours incubation
Excerpt: Notch-CBF1 Transactivation Assay
The Notch-CBF1 (C-promoter binding factor I) cell based transactivation assay is based on the ability of the released Notch intracellular domain fragments (NICDs) to function as transcription factors in conjunction with CBF1 and other nuclear factors. Luciferase assays were used to measure the antagonism of Notch-CBF1 transcriptional activity. HeLa cervical cancer cells are transiently co-transfected with pCDNA3.1/Hygro plasmids containing truncated Notch 1, Notch 2, Notch 3, or Notch 4 receptors and a PGL3 luciferase reporter vector containing 4 copies of CBF1 binding site. The cells were then tested for Notch-CBF1 activity in the absence or presence of test compounds. HeLa cells, maintained in DMEM (high glucose with HEPES), 1× glutamine/penicillin/streptomycin and 10% Fetal Bovine serum, were transiently transfected in a T175 Flask (4.5×10^6 cells/flask) using the Monster Transfection Kit (Minis #MIR2906) according to manufacturers specifications. Table 9 denotes respective DNA quantity for the transfections.
Assay media (5 μL) containing test compounds in final concentrations ranging from 5 μM to 8.4×10^−5 μM (3 fold serial dilutions) were added to the cells and the cell plates were then incubated for 18 hours at 37° C. and 5% CO2. Control wells contained DMSO vehicle (total counts) or 0.5 μM of an in-house small molecule inhibitor (background counts). Duplicates were used for each sample. Luciferase activity was measured after a 20-minute incubation with 50 μl STEADY-GLO® luciferase reagents according to manufacturer's specifications (Promega, Cat. #E2550) and analyzed by Envision plate reader (PerkinElmer, Boston, Mass.).
The antagonist effect of compounds was expressed as 100×[1−(average sample-average background)/(average total−average background)] where sample is the luciferase activity in the presence of test compound, background is equal to the luciferase activity in the presence of the small molecule inhibitor control and the total is signal induced in DMSO wells.

Chain of human Notch 3 (Q9UM47 40-2321 limits assumed): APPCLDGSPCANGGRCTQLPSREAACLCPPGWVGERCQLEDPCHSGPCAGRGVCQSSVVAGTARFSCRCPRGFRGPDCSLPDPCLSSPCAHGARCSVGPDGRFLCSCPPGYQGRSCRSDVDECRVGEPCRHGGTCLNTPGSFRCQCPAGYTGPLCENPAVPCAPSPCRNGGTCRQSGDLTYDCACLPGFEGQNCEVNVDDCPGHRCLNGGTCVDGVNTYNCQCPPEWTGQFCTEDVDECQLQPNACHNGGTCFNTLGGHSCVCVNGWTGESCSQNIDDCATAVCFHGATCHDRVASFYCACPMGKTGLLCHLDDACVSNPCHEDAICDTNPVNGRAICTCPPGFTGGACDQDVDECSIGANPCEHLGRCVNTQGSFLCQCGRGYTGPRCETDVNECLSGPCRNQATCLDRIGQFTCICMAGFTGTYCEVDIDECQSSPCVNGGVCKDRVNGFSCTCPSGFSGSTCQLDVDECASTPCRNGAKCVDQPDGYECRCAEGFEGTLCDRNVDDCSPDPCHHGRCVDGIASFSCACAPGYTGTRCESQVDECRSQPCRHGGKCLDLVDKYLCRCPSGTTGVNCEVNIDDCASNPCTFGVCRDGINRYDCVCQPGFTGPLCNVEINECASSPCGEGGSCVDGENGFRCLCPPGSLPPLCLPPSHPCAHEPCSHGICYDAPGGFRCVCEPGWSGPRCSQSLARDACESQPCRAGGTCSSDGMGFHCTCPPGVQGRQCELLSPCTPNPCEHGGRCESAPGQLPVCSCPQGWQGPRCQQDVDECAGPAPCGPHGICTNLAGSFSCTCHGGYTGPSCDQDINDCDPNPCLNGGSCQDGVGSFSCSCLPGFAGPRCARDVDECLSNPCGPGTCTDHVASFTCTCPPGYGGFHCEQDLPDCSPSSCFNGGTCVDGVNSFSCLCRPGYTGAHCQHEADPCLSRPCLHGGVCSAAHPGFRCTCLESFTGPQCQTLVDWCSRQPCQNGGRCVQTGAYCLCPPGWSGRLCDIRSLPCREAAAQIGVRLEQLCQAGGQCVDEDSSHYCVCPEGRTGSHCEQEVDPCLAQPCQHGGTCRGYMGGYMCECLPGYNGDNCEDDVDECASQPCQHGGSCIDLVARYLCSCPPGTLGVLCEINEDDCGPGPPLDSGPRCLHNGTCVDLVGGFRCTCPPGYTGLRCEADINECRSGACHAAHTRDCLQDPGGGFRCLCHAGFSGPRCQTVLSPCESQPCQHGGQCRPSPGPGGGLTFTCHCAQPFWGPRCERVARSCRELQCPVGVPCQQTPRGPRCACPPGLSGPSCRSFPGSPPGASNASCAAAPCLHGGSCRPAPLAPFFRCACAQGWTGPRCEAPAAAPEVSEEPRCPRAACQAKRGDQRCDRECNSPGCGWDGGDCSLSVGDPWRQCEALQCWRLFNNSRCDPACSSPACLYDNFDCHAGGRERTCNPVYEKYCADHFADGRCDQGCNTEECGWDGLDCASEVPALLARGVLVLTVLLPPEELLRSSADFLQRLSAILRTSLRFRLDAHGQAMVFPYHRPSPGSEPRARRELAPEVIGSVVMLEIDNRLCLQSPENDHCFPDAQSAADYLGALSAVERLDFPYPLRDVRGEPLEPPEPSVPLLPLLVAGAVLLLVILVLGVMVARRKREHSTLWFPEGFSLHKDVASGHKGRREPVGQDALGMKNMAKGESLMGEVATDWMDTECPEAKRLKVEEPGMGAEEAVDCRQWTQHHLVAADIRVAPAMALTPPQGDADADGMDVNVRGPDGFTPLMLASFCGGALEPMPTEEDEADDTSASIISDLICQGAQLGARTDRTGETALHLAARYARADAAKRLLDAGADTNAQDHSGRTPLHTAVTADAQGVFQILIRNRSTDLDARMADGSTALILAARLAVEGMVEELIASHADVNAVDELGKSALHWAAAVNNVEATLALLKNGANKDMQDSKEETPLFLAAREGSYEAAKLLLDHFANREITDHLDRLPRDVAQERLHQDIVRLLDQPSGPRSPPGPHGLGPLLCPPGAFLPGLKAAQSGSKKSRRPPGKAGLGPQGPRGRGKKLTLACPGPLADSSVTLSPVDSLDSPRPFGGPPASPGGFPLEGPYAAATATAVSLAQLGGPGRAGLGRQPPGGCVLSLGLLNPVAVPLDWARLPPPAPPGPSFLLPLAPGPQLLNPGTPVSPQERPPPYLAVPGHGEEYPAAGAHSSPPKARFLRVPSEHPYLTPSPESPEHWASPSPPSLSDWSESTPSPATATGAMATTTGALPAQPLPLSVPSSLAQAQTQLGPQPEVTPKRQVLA

SMILES | half-life (in vitro) | IC50 (human Notch 3)
CCC[C@H](C(N)=O)[C@@H](CC(C)C)C(=O)N[C@H]1N=C(c2ccccc2)c2ccccc2N(C)C1=O [Comparative Compound 45, reference compound] | 8 min | –
C=CC[C@H](C(N)=O)[C@@H](CC(C)C)C(=O)N[C@H]1N=C(c2ccccc2)c2cc(Cl)ccc2N(C)C1=O [Comparative Compound 46, reference compound] | 6 min | –
CCCC[C@H](C(N)=O)[C@@H](CC(C)C)C(=O)N[C@H]1N=C(c2ccc(Cl)cc2)c2ccccc2N(C)C1=O [Comparative Compound 47, reference compound] | 6 min | –
C=CC[C@H](C(N)=O)[C@@H](CC(C)C)C(=O)N[C@H]1N=C(c2ccccc2)c2ccccc2N(CCC)C1=O [Comparative Compound 48, reference compound] | 3 min | –
CCc1cccc2c1NC(=O)[C@@H](NC(=O)[C@H](CCC(F)(F)F)[C@H](CCC(F)(F)F)C(N)=O)N=C2c1cccc(Cl)c1 [Example 2, (2R,3S)—N-((3S)-5-(3-Chlorophenyl)-9-ethyl-2-oxo-2,3-dihydro-1H-1,4-benzodiazepin-3-yl)-2,3-bis(3,3,3-trifluoropropyl)succinamide] | 32 min | 4.3 nM
Cc1ccc(C2=N[C@H](NC(=O)[C@H](CCC(F)(F)F)[C@H](CCCC(F)(F)F)C(N)=O)C(=O)Nc3c(Cl)cccc32)cc1C [Example 4, (2R,3S)—N-(9-Chloro-5-(3,4-dimethylphenyl)-2-oxo-2,3-dihydro-1H-1,4-benzodiazepin-3-yl)-3-(4,4,4-trifluorobutyl)-2-(3,3,3-trifluoropropyl)succinamide] | 31 min | 7.3 nM
Cc1cc(C)cc(C2=N[C@H](NC(=O)[C@H](CCC(F)(F)F)[C@H](CCCC(F)(F)F)C(N)=O)C(=O)Nc3c(Cl)cccc32)c1 [Example 5, (2R,3S)—N-(9-Chloro-5-(3,5-dimethylphenyl)-2-oxo-2,3-dihydro-1H-1,4-benzodiazepin-3-yl)-3-(4,4,4-trifluorobutyl)-2-(3,3,3-trifluoropropyl)succinamide] | 33 min | 4 nM
CCc1cccc2c1NC(=O)[C@@H](NC(=O)[C@H](CCC(F)(F)F)[C@H](CCC(F)(F)F)C(N)=O)N=C2c1cccc(C)c1 [Example 6, (2R,3S)—N-((3S)-9-Ethyl-5-(3-methylphenyl)-2-oxo-2,3-dihydro-1H-1,4-benzodiazepin-3-yl)-2,3-bis(3,3,3-trifluoropropyl)succinamide] | 33 min | 4.5 nM
Cc1cccc2c1NC(=O)[C@@H](NC(=O)[C@H](CCC(F)(F)F)[C@H](CCC(F)(F)F)C(N)=O)N=C2c1cccc(Cl)c1 [Example 7, (2R,3S)—N-((3S)-5-(3-Chlorophenyl)-9-methyl-2-oxo-2,3-dihydro-1H-1,4-benzodiazepin-3-yl)-2,3-bis(3,3,3-trifluoropropyl)succinamide] | > 120 min | –
Cc1cccc2c1NC(=O)[C@@H](NC(=O)[C@H](CCC(F)(F)F)[C@H](CCCC(F)(F)F)C(N)=O)N=C2c1cccc(Cl)c1 [Example 8, (2R,3S)—N-((3S)-5-(3-Chlorophenyl)-9-methyl-2-oxo-2,3-dihydro-1H-1,4-benzodiazepin-3-yl)-3-(4,4,4-trifluorobutyl)-2-(3,3,3-trifluoropropyl)succinamide] | 71 min | 11.6 nM
Cc1cccc(C2=N[C@H](NC(=O)[C@H](CCC(F)(F)F)[C@H](CCC(F)(F)F)C(N)=O)C(=O)Nc3c2cccc3C(F)(F)F)c1 [Example 9, (2R,3S)—N-((3S)-5-(3-Methylphenyl)-2-oxo-9-(trifluoromethyl)-2,3-dihydro-1H-1,4-benzodiazepin-3-yl)-2,3-bis(3,3,3-trifluoropropyl)succinamide] | 113 min | 3.7 nM
Cc1cc(C)cc(C2=N[C@H](NC(=O)[C@H](CCC(F)(F)F)[C@H](CCC(F)(F)F)C(N)=O)C(=O)Nc3c(Cl)cccc32)c1 [Example 10, (2R,3S)—N-((3S)-9-Chloro-5-(3,5-dimethylphenyl)-2-oxo-2,3-dihydro-1H-1,4-benzodiazepin-3-yl)-2,3-bis(3,3,3-trifluoropropyl)succinamide] | 54 min | 5.4 nM
Cc1cccc(C2=N[C@H](NC(=O)[C@H](CCC(F)(F)F)[C@H](CCCC(F)(F)F)C(N)=O)C(=O)Nc3c2cccc3C(F)(F)F)c1 [Example 11, (2R,3S)—N-((3S)-5-(3-Methylphenyl)-2-oxo-9-(trifluoromethyl)-2,3-dihydro-1H-1,4-benzodiazepin-3-yl)-3-(4,4,4-trifluorobutyl)-2-(3,3,3-trifluoropropyl)succinamide] | 42 min | –
Cc1cccc(C2=N[C@H](NC(=O)[C@H](CCC(F)(F)F)[C@H](CCC(F)(F)F)C(N)=O)C(=O)Nc3c2cccc3C(C)C)c1 [Example 12, (2R,3S)—N-((3S)-9-Isopropyl-5-(3-methylphenyl)-2-oxo-2,3-dihydro-1H-1,4-benzodiazepin-3-yl)-2,3-bis(3,3,3-trifluoropropyl)succinamide] | 53 min | 3.2 nM
CC(C)c1cccc2c1NC(=O)[C@@H](NC(=O)[C@H](CCC(F)(F)F)[C@H](CCC(F)(F)F)C(N)=O)N=C2c1ccccc1 [Example 13, (2R,3S)—N-((3S)-9-Isopropyl-2-oxo-5-phenyl-2,3-dihydro-1H-1,4-benzodiazepin-3-yl)-2,3-bis(3,3,3-trifluoropropyl)succinamide] | 48 min | –
Cc1cccc(C2=N[C@H](NC(=O)[C@H](CCC(F)(F)F)[C@H](CCCC(F)(F)F)C(N)=O)C(=O)Nc3c(OC4CC4)cccc32)c1 [Example 14, (2R,3S)—N-((3S)-9-(Cyclopropyloxy)-5-(3-methylphenyl)-2-oxo-2,3-dihydro-1H-1,4-benzodiazepin-3-yl)-3-(4,4,4-trifluorobutyl)-2-(3,3,3-trifluoropropyl)succinamide] | 56 min | –
Cc1cccc(C2=N[C@H](NC(=O)[C@H](CCC(F)(F)F)[C@H](CCC(F)(F)F)C(N)=O)C(=O)Nc3c(OC4CC4)cccc32)c1 [Example 15, (2R,3S)—N-((3S)-9-(Cyclopropyloxy)-5-(3-methylphenyl)-2-oxo-2,3-dihydro-1H-1,4-benzodiazepin-3-yl)-2,3-bis(3,3,3-trifluoropropyl)succinamide] | 101 min | –
NC(=O)[C@@H](CCCC(F)(F)F)[C@@H](CCC(F)(F)F)C(=O)N[C@H]1N=C(c2ccccc2)c2cccc(OC3CC3)c2NC1=O [Example 16, (2R,3S)—N-((3S)-9-(Cyclopropyloxy)-2-oxo-5-phenyl-2,3-dihydro-1H-1,4-benzodiazepin-3-yl)-3-(4,4,4-trifluorobutyl)-2-(3,3,3-trifluoropropyl)succinamide] | 108 min | 3.7 nM
Cc1cccc(C2=N[C@H](NC(=O)[C@H](CCC(F)(F)F)[C@H](CCCC(F)(F)F)C(N)=O)C(=O)Nc3c(Cl)cccc32)c1 [Example 17, (2R,3S)—N-((3S)-9-Chloro-5-(3-methylphenyl)-2-oxo-2,3-dihydro-1H-1,4-benzodiazepin-3-yl)-3-(4,4,4-trifluorobutyl)-2-(3,3,3-trifluoropropyl)succinamide] | 56 min | 2.4 nM
COc1cccc2c1NC(=O)[C@@H](NC(=O)[C@H](CCC(F)(F)F)[C@H](CCC(F)(F)F)C(N)=O)N=C2c1cccc(C)c1 [Example 29, (2R,3S)—N-((3S)-5-(3-Methylphenyl)-9-methoxy-2-oxo-2,3-dihydro-1H-1,4-benzodiazepin-3-yl)-2,3-bis(3,3,3-trifluoropropyl)succinamide] | 98 min | –
NC(=O)[C@@H](CCC(F)(F)F)[C@@H](CCC(F)(F)F)C(=O)N[C@H]1N=C(c2ccc(CO)cc2)c2ccccc2NC1=O [Example 30, (2R,3S)—N-((3S)-5-(4-(Hydroxymethyl)phenyl)-2-oxo-2,3-dihydro-1H-1,4-benzodiazepin-3-yl)-2,3-bis(3,3,3-trifluoropropyl)succinamide] | 92 min | –
Cc1cccc(C2=N[C@H](NC(=O)[C@H](CCC(F)(F)F)[C@H](CCC(F)(F)F)C(N)=O)C(=O)Nc3ccccc32)c1 [Example 32, (2R,3S)—N-((3S)-5-(3-Methylphenyl)-2-oxo-2,3-dihydro-1H-1,4-benzodiazepin-3-yl)-2,3-bis(3,3,3-trifluoropropyl)succinamide] | 82 min | –
COc1cccc2c1NC(=O)[C@@H](NC(=O)[C@H](CCC(F)(F)F)[C@H](CCC(F)(F)F)C(N)=O)N=C2c1ccc(Cl)cn1 [Example 34, (2R,3S)—N-((3S)-5-(5-Chloro-2-pyridinyl)-9-methoxy-2-oxo-2,3-dihydro-1H-1,4-benzodiazepin-3-yl)-2,3-bis(3,3,3-trifluoropropyl)succinamide] | 116 min | –
COc1ccc(C2=N[C@H](NC(=O)[C@H](CCC(F)(F)F)[C@H](CCC(F)(F)F)C(N)=O)C(=O)Nc3ccccc32)cc1 [Example 35, (2R,3S)—N-((3S)-5-(4-Methoxyphenyl)-2-oxo-2,3-dihydro-1H-1,4-benzodiazepin-3-yl)-2,3-bis(3,3,3-trifluoropropyl)succinamide] | 118 min | –
